For 14 molecules, IC50 results are on record in patent US20240352029A1, “CDK Inhibitors And Their Use As Pharmaceuticals” (Prelude Therapeutics Incorporated, priority 2023, published 2024).

For one test, the system named is OVCAR3 p-RB. Description: pRB ICW assay in OVCAR3 cells. Conditions: Homo sapiens, OVCAR-3, 2 hours incubation with compound. In kind it is cell-based. The protocol:
pRB ICW Assay in OVCAR3 Cells
OVCAR3 cells were maintained in RPMI (Corning, Catalog #: 10-040-CV) supplemented with 10% v/v FBS (Gibco, Catalog #: 26140-079), 1% v/v Penicillin Streptomycin (Gibco, Catalog #15140-122.) OVCAR3 cells grown at log phase were trypsinized, counted, and resuspended in fresh medium to reach a final density of 6.7e4 cells/ml and 75 μL of culture were dispensed into a 384-well plate (Falcon, cat #353962) using Multidrop Combi dispenser (Thermo Scientific). The next day, compounds were dispensed as a 9-point, ½ log serial dilution using a Tecan digital dispenser (D300e), and cells were incubated with compound for 2 hours in a humidified incubator at 37° C. A reference compound at a final concentration of 10 μM was used as a control for maximum inhibition. Each compound was tested in duplicates in each experiment. At the end of the incubation, 25 μl of 16% paraformaldehyde (Electron Microscopy, cat #15710) was slowly added to each well and the plate was incubated at room temperature (RT) for 30 minutes to fix cells. Cells were then permeabilized by incubating with 50 μl/well of wash buffer (1×PBS with 0.1% Triton X-100) 5×5 minutes, followed by 1 hour blocking with 30 μl/well of Odyssey blocking buffer (Li—COR, cat #927-40000), all at RT. Anti-phosphor RB antibody (Cell signaling 8516S) was diluted 1:1000 in Odyssey blocking buffer and 20 μl was added to all wells and incubated overnight in 4° C. with gently rocking. The next day, cells were washed 5×5 min with 50 μl/well of wash buffer, followed with 1 hour incubation with secondary antibody and DRAQ5 diluted in Odyssey blocking buffer (1:500 dilution for secondary antibody and 1:2000 dilution for DRAQ5), 5×5 min washes, and one last wash with water. Plates were dried in 37° C. oven for 5 min and scanned using Li—COR Odyssey CLx imaging system to acquire intensities at 700 and 800 nm channels.

In a further test the target is T1, CDK4/Cyclin D1 (Homo sapiens, UniProt P11802).
T1 construct: purchased ProQinase; host or cells: insect cell
Description: CDK4/CyclinD1 enzymatic activity assay (TR-FRET). The class given is biochemical. Conditions: ATP 2 mM final, read-out: CDK4_D1 IC50. The protocol: CDK4/CyclinD1 Enzymatic Activity Assay
(§1) The inhibitory activity of compounds was evaluated in vitro using TR-FRET assay with white 384-well low volume microplate (Greiner Bio-One). CDK4/Cyclin D1 catalyzed phosphorylation of peptide in the presence and absence of compounds was measured and used in IC50 determination. Recombinant protein complex CDK4/Cyclin D1, expressed from insect cell, was purchased from ProQinase. Testing compounds were dissolved in DMSO at 1 mM and tested in 9-dose IC50 mode. The reaction mixture was prepared by mixing CDK4/CyclinD1 (1 nM final), ULight-4E-BP1 (100 nM final, Perkinelmer, TRF0128-D), and ATP (2 mM final) in assay buffer (20 mM of HEPES pH 7.4, 1 mM of EGTA, 0.05% BSA, 0.005% Tween 20, and 1 mM TCEP). The compound of interest in DMSO was added to each well in 3-fold serial dilution by dispenser (TECAN D300E) to make a 9.9 μL of reaction mixture. After 20 minutes preincubation at room temperature, 0.1 μL MgCl2 (10 mM final) was added to initiate the reaction. Following a 45 minutes incubation at 37° C., the reaction was stopped by addition of 2 μL of quenching buffer consisting of Lance detection buffer (Perkinelmer CR97-100C), LANCE Ultra Europium-anti-P-4E-BP1 (Perkinelmer, TRF0216-D), EDTA, and incubate at room temperature for additional 60 minutes in dark. The reaction signal was measured by Envision multimode plate reader (PerkinElmer, 2102-0010). IC50 values were determined by fitting the data to the standard 4 parameters with Hill Slope using GraphPad Prism software.

The target of the next test is CDK2/Cyclin E2 (Homo sapiens, UniProt P24941). Description: CDK2/CyclinE2 enzymatic activity assay (TR-FRET). Particulars: ATP 1 mM final, read-out: CDK2_E1 IC50. The class given is biochemical. The protocol:
CDK2/CyclinE2 Enzymatic Activity Assay
as §1, with “Bio-One). CDK2/Cyclin E2” for “Bio-One). CDK4/Cyclin D1”, “complex CDK2/Cyclin E2,” for “complex CDK4/Cyclin D1,”, “mixing CDK2/CyclinE2” for “mixing CDK4/CyclinD1”, “ULight-4E-BP1 (50” for “ULight-4E-BP1 (100”, “ATP (1” for “ATP (2”
A general note: In TR-FRET formats the signal depends on donor and acceptor labels being close together.

T1 sequence (P11802 whole entry): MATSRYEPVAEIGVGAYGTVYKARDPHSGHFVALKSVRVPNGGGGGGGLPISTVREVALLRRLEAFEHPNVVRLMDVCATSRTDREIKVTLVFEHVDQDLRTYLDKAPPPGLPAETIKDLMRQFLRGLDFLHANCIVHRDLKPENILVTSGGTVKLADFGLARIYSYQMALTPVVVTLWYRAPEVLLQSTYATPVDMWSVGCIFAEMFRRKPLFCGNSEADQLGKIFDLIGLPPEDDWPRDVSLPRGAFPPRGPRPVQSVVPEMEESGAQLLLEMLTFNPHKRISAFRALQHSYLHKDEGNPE
T1 sequence (P24385 whole entry partner): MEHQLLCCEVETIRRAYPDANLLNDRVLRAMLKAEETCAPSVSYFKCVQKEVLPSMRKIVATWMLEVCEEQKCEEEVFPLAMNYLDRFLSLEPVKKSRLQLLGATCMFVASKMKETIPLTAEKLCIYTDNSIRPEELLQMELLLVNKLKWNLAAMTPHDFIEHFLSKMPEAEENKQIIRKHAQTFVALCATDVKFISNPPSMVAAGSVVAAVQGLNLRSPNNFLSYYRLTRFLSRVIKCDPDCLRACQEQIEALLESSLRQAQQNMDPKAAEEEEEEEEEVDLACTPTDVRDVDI

The term IC50 denotes the midpoint of a concentration-inhibition curve. `Cc1c(-c2nc(N[C@H]3CCN(S(C)(=O)=O)C[C@H]3C)ncc2F)sc2c1C(=O)NC2(C)C` [Example 1, 2-(5-Fluoro-2-(((3R,4S)-3-methyl-1-(methylsulfonyl)piperidin-4-yl)amino)pyrimidin-4-yl)-3,6,6-trimethyl-5,6-dihydro-4H-thieno[2,3-c]pyrrol-4-one]: the 50% inhibitory concentration (IC50) in the test with OVCAR3 p-RB, on CDK4/Cyclin D1 and on CDK2/Cyclin E2 was no more than 100 nM each time.
As to `Cc1c(-c2nc(N[C@H]3CCN(S(C)(=O)=O)C[C@H]3F)ncc2F)sc2c1C(=O)NC2(C)C` [Example 2, 2-(5-fluoro-2-(((3R,4S)-3-fluoro-1-(methylsulfonyl)piperidin-4-yl)amino)pyrimidin-4-yl)-3,6,6-trimethyl-5,6-dihydro-4H-thieno[2,3-c]pyrrol-4-one], the half-maximal inhibitory concentration (IC50) with OVCAR3 p-RB, on CDK4/Cyclin D1 and at CDK2/Cyclin E2 was no more than 100 nM in each case.
Regarding `Cc1c(-c2nc(NC3CCN(S(C)(=O)=O)CC3)ncc2F)sc2c1C(=O)NC2(C)C` [Example 3, 2-(5-fluoro-2-((1-(methylsulfonyl)piperidin-4-yl)amino)pyrimidin-4-yl)-3,6,6-trimethyl-5,6-dihydro-4H-thieno[2,3-c]pyrrol-4-one], the 50% inhibitory concentration (IC50) in the test with OVCAR3 p-RB, on CDK4/Cyclin D1 and at CDK2/Cyclin E2 was no more than 100 nM each time.
For the molecule `Cc1c(-c2nc(NC3CCN(S(C)(=O)=O)CC3)ncc2F)sc2c1C(=O)NC2` [Example 4, 2-(5-fluoro-2-((1-(methylsulfonyl)piperidin-4-yl)amino)pyrimidin-4-yl)-3-methyl-5,6-dihydro-4H-thieno [2,3-c]pyrrol-4-one], the IC50 in the test with OVCAR3 p-RB and on CDK2/Cyclin E2 was no more than 100 nM in each case.
Turning to `Cc1c(-c2nc(N[C@H]3CCN(S(C)(=O)=O)C[C@H]3C)ncc2F)sc2c1C(=O)NC2` [Example 5, 2-(5-Fluoro-2-(((3R,4S)-3-methyl-1-(methylsulfonyl)piperidin-4-yl)amino)pyrimidin-4-yl)-3-methyl-5,6-dihydro-4H-thieno[2,3-c]pyrrol-4-one], the half-maximal inhibitory concentration (IC50) in the test on OVCAR3 p-RB and on CDK2/Cyclin E2 was no more than 100 nM in each case.
In the case of `C[C@@H]1CN(S(C)(=O)=O)CC[C@@H]1Nc1ncc(C(F)(F)F)c(-c2cc3c(s2)C(C)(C)NC3=O)n1` [Example 6, 6,6-Dimethyl-2-(2-(((3R,4S)-3-methyl-1-(methylsulfonyl)piperidin-4-yl)amino)-5-(trifluoromethyl)pyrimidin-4-yl)-5,6-dihydro-4H-thieno[2,3-c]pyrrol-4-one], the 50% inhibitory concentration (IC50) in the test with OVCAR3 p-RB, on CDK4/Cyclin D1 and at CDK2/Cyclin E2 was no more than 100 nM each time.
As to `C[C@@H]1CN(S(=O)(=O)c2cnn(C)c2)CC[C@@H]1Nc1ncc(C(F)(F)F)c(-c2cc3c(s2)C(C)(C)NC3=O)n1` [Example 7, 6,6-dimethyl-2-(2-(((3R,4S)-3-methyl-1-((1-methyl-1H-pyrazol-4-yl)sulfonyl)piperidin-4-yl)amino)-5-(trifluoromethyl)pyrimidin-4-yl)-5,6-dihydro-4H-thieno[2,3-c]pyrrol-4-one], the concentration for half-maximal inhibition (IC50) in the test with OVCAR3 p-RB, at CDK4/Cyclin D1 and at CDK2/Cyclin E2 was no more than 100 nM throughout.
Take `C[C@@H]1CN(S(=O)(=O)c2cn(C)cn2)CC[C@@H]1Nc1ncc(C(F)(F)F)c(-c2cc3c(s2)C(C)(C)NC3=O)n1` [Example 8, 6,6-dimethyl-2-(2-(((3R,4S)-3-methyl-1-((1-methyl-1H-imidazol-4-yl)sulfonyl)piperidin-4-yl)amino)-5-(trifluoromethyl)pyrimidin-4-yl)-5,6-dihydro-4H-thieno[2,3-c]pyrrol-4-one]: the concentration for half-maximal inhibition (IC50) in the test on OVCAR3 p-RB, at CDK4/Cyclin D1 and at CDK2/Cyclin E2 was no more than 100 nM in each case.
Turning to `C[C@@H]1CN(S(=O)(=O)c2cn[nH]c2)CC[C@@H]1Nc1ncc(C(F)(F)F)c(-c2cc3c(s2)C(C)(C)NC3=O)n1` [Example 9, 2-(2-(((3R,4S)-1-((1H-pyrazol-4-yl)sulfonyl)-3-methylpiperidin-4-yl)amino)-5-(trifluoro-methyl)pyrimidin-4-yl)-6,6-dimethyl-5,6-dihydro-4H-thieno[2,3-c]pyrrol-4-one], the IC50 in the test on OVCAR3 p-RB, on CDK4/Cyclin D1 and at CDK2/Cyclin E2 was no more than 100 nM in each case.
With `C[C@@H]1CN(S(=O)(=O)c2c[nH]cn2)CC[C@@H]1Nc1ncc(C(F)(F)F)c(-c2cc3c(s2)C(C)(C)NC3=O)n1` [Example 10, 2-(2-(((3R,4S)-1-((1H-imidazol-4-yl)sulfonyl)-3-methylpiperidin-4-yl)amino)-5-(trifluoro-methyl)pyrimidin-4-yl)-6,6-dimethyl-5,6-dihydro-4H-thieno[2,3-c]pyrrol-4-one], the half-maximal inhibitory concentration (IC50) with OVCAR3 p-RB, at CDK4/Cyclin D1 and on CDK2/Cyclin E2 was no more than 100 nM each time.
Regarding `Cn1cc(S(=O)(=O)N2CCC(Nc3ncc(C(F)(F)F)c(-c4cc5c(s4)C(C)(C)NC5=O)n3)CC2)cn1` [Example 11, 6,6-dimethyl-2-(2-((1-((1-methyl-1H-pyrazol-4-yl)sulfonyl)piperidin-4-yl)amino)-5-(trifluoro-methyl)pyrimidin-4-yl)-5,6-dihydro-4H-thieno[2,3-c]pyrrol-4-one], the IC50 in the test on OVCAR3 p-RB, on CDK4/Cyclin D1 and at CDK2/Cyclin E2 was no more than 100 nM each time.
For `C[C@@H]1CN(S(C)(=O)=O)CC[C@@H]1Nc1ncc(C(F)(F)F)c(-c2cc3c(s2)CNC3=O)n1` [Example 18, 2-(2-(((3R,4S)-3-methyl-1-(methylsulfonyl)piperidin-4-yl)amino)-5-(trifluoro-methyl)pyrimidin-4-yl)-5,6-dihydro-4H-thieno[2,3-c]pyrrol-4-one], the IC50 in the test on OVCAR3 p-RB is 100 to 500 nM; at CDK2/Cyclin E2, no more than 100 nM.
In the case of `CS(=O)(=O)N1CC[C@H](Nc2ncc(C(F)(F)F)c(-c3cc4c(s3)CNC4=O)n2)[C@H](F)C1` [Example 19, 2-(2-(((3R,4S)-3-fluoro-1-(methylsulfonyl)piperidin-4-yl)amino)-5-(trifluoro-methyl)pyrimidin-4-yl)-5,6-dihydro-4H-thieno[2,3-c]pyrrol-4-one], the concentration for half-maximal inhibition (IC50) in the test with OVCAR3 p-RB and at CDK2/Cyclin E2 was no more than 100 nM in each case.
Consider `O=C1NCc2sc(-c3nc(N[C@H]4CCN(S(=O)(=O)c5cn[nH]c5)C[C@H]4F)ncc3C(F)(F)F)cc21` [Example 22, 2-(2-(((3R,4S)-1-((1H-pyrazol-4-yl)sulfonyl)-3-fluoropiperidin-4-yl)amino)-5-(trifluoromethyl)pyrimidin-4-yl)-5,6-dihydro-4H-thieno[2,3-c]pyrrol-4-one], for which the IC50 in the test with OVCAR3 p-RB and on CDK2/Cyclin E2 was no more than 100 nM throughout.
